Reference: patent publication US12540120B2, “Herbicidal compounds” (SYNGENTA CROP PROTECTION AG, priority 2019, dated 2026)

Assays:
Format in all cases: in vivo
[1] = tested on: Amaranthus retoflexus (AMARE); test: B1 Post-Emergence Efficacy—Test 1; conditions: post-emergence application, 1000 g/ha, evaluated after 13 days
Procedure: (§1) B1 Post-Emergence Efficacy—Test 1 Seeds of a variety of test species are sown in standard soil in pots:—Solanum nigrum (SOLNI), Amaranthus retoflexus (AMARE), Setaria faberi (SETFA), Echinochloa crus-galli (ECHCG), Ipomoea hederacea (IPOHE), Lolium perenne (LOLPE). After 8 days cultivation (post-emergence) under controlled conditions in a glasshouse (at 24/16° C., day/night; 14 hours light; 65% humidity), the plants are sprayed with an aqueous spray solution derived from the formulation of the technical active ingredient in acetone/water (50:50) solution containing 0.5% Tween 20 (polyoxyethylene sorbitan monolaurate, CAS RN 9005-64-5). Compounds are applied at 1000 g/ha. The test plants are then grown in a glasshouse under controlled conditions in a glasshouse (at 24/16° C., day/night; 14 hours light; 65% humidity) and watered twice daily. After 13 days, the test is evaluated for the percentage damage caused to the plant. The biological activities are assessed on a five point scale (5=80-100%; 4=60-79%; 3=40-59%; 2=20-39%; 1=0-19%). A blank value in the table is indicative that the compound was not tested on that species.

[2] = tested on: Echinochloa crus-galli (ECHCG); test: B1 Post-Emergence Efficacy—Test 1; conditions: post-emergence application, 1000 g/ha, evaluated after 13 days
Procedure: as §1

[3] = tested on: Ipomoea hederacea (IPOHE); test: B1 Post-Emergence Efficacy—Test 1; conditions: post-emergence application, 1000 g/ha, evaluated after 13 days
Procedure: as §1

Lolium perenne (LOLPE) [4] = test: B1 Post-Emergence Efficacy—Test 1; conditions: post-emergence application, 1000 g/ha, evaluated after 13 days
Procedure: as §1

Setaria faberi (SETFA) [5] = test: B1 Post-Emergence Efficacy—Test 1; conditions: post-emergence application, 1000 g/ha, evaluated after 13 days
Procedure: as §1

Solanum nigrum (SOLNI) [6] = test: B1 Post-Emergence Efficacy—Test 1; conditions: post-emergence application, 1000 g/ha, evaluated after 13 days
Procedure: as §1

[7] = tested on: Amaranthus retoflexus (AMARE); test: B2 Post-Emergence Efficacy—Test 2; conditions: post-emergence application, 250 g/ha, evaluated after 13 days (Test 2)
Summary of the method: (§2)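 Foliar application at 250 g/ha to seedlings 8 days post-sowing; carrier acetone/water (50:50), 0.5% Tween 20. Injury assessed at 13 days and banded into scores of 1 (0-19%) to 5 (80-100%).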

[8] = tested on: Echinochloa crus-galli (ECHCG); test: B2 Post-Emergence Efficacy—Test 2; conditions: post-emergence application, 250 g/ha, evaluated after 13 days (Test 2)
Summary of the method: as §2

[9] = tested on: Ipomoea hederacea (IPOHE); test: B2 Post-Emergence Efficacy—Test 2; conditions: post-emergence application, 250 g/ha, evaluated after 13 days (Test 2)
Summary of the method: as §2

Lolium perenne (LOLPE) [10] = test: B2 Post-Emergence Efficacy—Test 2; conditions: post-emergence application, 250 g/ha, evaluated after 13 days (Test 2)
Summary of the method: as §2

Setaria faberi (SETFA) [11] = test: B2 Post-Emergence Efficacy—Test 2; conditions: post-emergence application, 250 g/ha, evaluated after 13 days (Test 2)
Summary of the method: as §2

Solanum nigrum (SOLNI) [12] = test: B2 Post-Emergence Efficacy—Test 2; conditions: post-emergence application, 250 g/ha, evaluated after 13 days (Test 2)
Summary of the method: as §2

[13] = tested on: Amaranthus retoflexus (AMARE); test: B4 Pre-Emergence Efficacy—Test 1; conditions: pre-emergence application, 1000 g/ha, evaluated after 13 days
Procedure: (§3) B4 Pre-Emergence Efficacy—Test 1 Seeds of a variety of test species were sown in standard soil in pots: Solanum nigrum (SOLNI), Amaranthus retoflexus (AMARE), Setaria faberi (SETFA), Echinochloa crus-galli (ECHCG), Ipomoea hederacea (IPOHE), Lolium perenne (LOLPE). After cultivation for one day (pre-emergence) under controlled conditions in a glasshouse (at 24/16° C., day/night; 14 hours light; 65% humidity), the plants were sprayed with an aqueous spray solution derived from the formulation of the technical active ingredient in acetone/water (50:50) solution containing 0.5% Tween 20 (polyoxyethelyene sorbitan monolaurate, CAS RN 9005-64-5). Compounds are applied at 1000 g/ha. The test plants were then grown in a glasshouse under controlled conditions (at 24/16° C., day/night; 14 hours light; 65% humidity) and watered twice daily. After 13 days, the test is evaluated for the percentage damage caused to the plant. The biological activities are assessed on a five point scale (5=80-100%; 4=60-79%; 3=40-59%; 2=20-39%; 1=0-19%). A blank value in the table is indicative that the compound was not tested on that species.

[14] = tested on: Echinochloa crus-galli (ECHCG); test: B4 Pre-Emergence Efficacy—Test 1; conditions: pre-emergence application, 1000 g/ha, evaluated after 13 days
Procedure: as §3

[15] = tested on: Ipomoea hederacea (IPOHE); test: B4 Pre-Emergence Efficacy—Test 1; conditions: pre-emergence application, 1000 g/ha, evaluated after 13 days
Procedure: as §3

Lolium perenne (LOLPE) [16] = test: B4 Pre-Emergence Efficacy—Test 1; conditions: pre-emergence application, 1000 g/ha, evaluated after 13 days
Procedure: as §3

Setaria faberi (SETFA) [17] = test: B4 Pre-Emergence Efficacy—Test 1; conditions: pre-emergence application, 1000 g/ha, evaluated after 13 days
Procedure: as §3

Solanum nigrum (SOLNI) [18] = test: B4 Pre-Emergence Efficacy—Test 1; conditions: pre-emergence application, 1000 g/ha, evaluated after 13 days
Procedure: as §3

[19] = tested on: Amaranthus retoflexus (AMARE); test: B5 Pre-Emergence Efficacy—Test 2; conditions: 250 g/ha, evaluated after 13 days
Summary of the method: (§4)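 Compounds are applied pre-emergence at 250 g/ha, one day after sowing, in an aqueous acetone/water spray carrying 0.5% Tween 20. Damage is assessed 13 days later and scored from 1 (0-19%) to 5 (80-100%).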

Solanum nigrum (SOLNI) [20] = test: B5 Pre-Emergence Efficacy—Test 2; conditions: 250 g/ha, evaluated after 13 days
Summary of the method: as §4

[21] = tested on: Echinochloa crus-galli (ECHCG); test: B5 Pre-Emergence Efficacy—Test 2; set-up: key: 5-point scale: 5=80-100%, 4=60-79%, 3=40-59%, 2=20-39%, 1=0-19% damage; conditions: 250 g/ha, evaluated after 13 days
Summary of the method: as §4

[22] = tested on: Ipomoea hederacea (IPOHE); test: B5 Pre-Emergence Efficacy—Test 2; set-up: key: 5-point scale: 5=80-100%, 4=60-79%, 3=40-59%, 2=20-39%, 1=0-19% damage; conditions: 250 g/ha, evaluated after 13 days
Summary of the method: as §4

Lolium perenne (LOLPE) [23] = test: B5 Pre-Emergence Efficacy—Test 2; set-up: key: 5-point scale: 5=80-100%, 4=60-79%, 3=40-59%, 2=20-39%, 1=0-19% damage; conditions: 250 g/ha, evaluated after 13 days
Summary of the method: as §4

Setaria faberi (SETFA) [24] = test: B5 Pre-Emergence Efficacy—Test 2; set-up: key: 5-point scale: 5=80-100%, 4=60-79%, 3=40-59%, 2=20-39%, 1=0-19% damage; conditions: 250 g/ha, evaluated after 13 days
Summary of the method: as §4

Cc1nn(C)c(=O)c(-c2c(F)ccc(Cl)c2CCc2ccc(C#N)cc2)c1O [Compound A-1.036, 4-[2-[6-chloro-3-fluoro-2-(5-hydroxy-2,6-dimethyl-3-oxo-pyridazin-4-yl)phenyl]ethyl]benzonitrile]
5 (5=80-100%): percentage damage caused to the plant, five point scale, AMARE [1] | percentage damage caused to the plant, five point scale, ECHCG [2] | percentage damage caused to the plant, five point scale, IPOHE [3] | percentage damage caused to the plant, five point scale, LOLPE (Lolium perenne (LOLPE) [4]) | percentage damage caused to the plant, five point scale, SETFA (Setaria faberi (SETFA) [5]) | percentage damage caused to the plant, five point scale, SOLNI (Solanum nigrum (SOLNI) [6]) | percentage damage caused to the plant, five point scale, AMARE [7] | percentage damage caused to the plant, five point scale, ECHCG [8] | percentage damage caused to the plant, five point scale, IPOHE [9] | percentage damage caused to the plant, five point scale, LOLPE (Lolium perenne (LOLPE) [10]) | percentage damage caused to the plant, five point scale, SETFA (Setaria faberi (SETFA) [11]) | percentage damage caused to the plant, five point scale, SOLNI (Solanum nigrum (SOLNI) [12]) | percentage damage caused to the plant, five point scale, AMARE [13] | percentage damage caused to the plant, five point scale, ECHCG [14] | percentage damage caused to the plant, five point scale, IPOHE [15] | percentage damage caused to the plant, five point scale, LOLPE (Lolium perenne (LOLPE) [16]) | percentage damage caused to the plant, five point scale, SETFA (Setaria faberi (SETFA) [17]) | percentage damage caused to the plant, five point scale, SOLNI (Solanum nigrum (SOLNI) [18]) | Control of weed species after pre-emergence application, AMARE (percentage damage, five point scale) [19] | Control of weed species after pre-emergence application, SOLNI (percentage damage, five point scale) (Solanum nigrum (SOLNI) [20]) | Control of weed species after pre-emergence application, ECHCG (percentage damage, five point scale) [21] | Control of weed species after pre-emergence application, IPOHE (percentage damage, five point scale) [22] | Control of weed species after pre-emergence application, LOLPE (percentage damage, five point scale) (Lolium perenne (LOLPE) [23]) | Control of weed species after pre-emergence application, SETFA (percentage damage, five point scale) (Setaria faberi (SETFA) [24])
